The Kinase Knowledgebase extract (Sharma et al. 2016)

Target: MAPK14 (human) (UniProt Q16539)
Test: Assessment of MAPK14 Kinase Activity

Chain of MAPK14 (human) (Q16539 whole entry, looked up): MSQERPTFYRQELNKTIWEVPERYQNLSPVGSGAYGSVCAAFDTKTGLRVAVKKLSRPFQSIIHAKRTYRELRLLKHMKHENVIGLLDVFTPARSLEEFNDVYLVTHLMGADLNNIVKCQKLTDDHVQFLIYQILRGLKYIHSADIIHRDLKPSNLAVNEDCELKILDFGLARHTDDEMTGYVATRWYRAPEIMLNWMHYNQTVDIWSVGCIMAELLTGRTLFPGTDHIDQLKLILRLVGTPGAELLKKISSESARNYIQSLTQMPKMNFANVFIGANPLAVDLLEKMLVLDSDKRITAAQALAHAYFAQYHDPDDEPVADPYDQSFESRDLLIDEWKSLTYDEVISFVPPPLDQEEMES

Structure (SMILES)	IC50
COc1ccc(-c2cc(NC(=O)Nc3sc(C(C)(C)C)cc3C(=O)N3CCNC(=O)C3(C)C)ccc2C)nc1	< 100 nM
Cc1ccc(NC(=O)Nc2sc(C(C)(C)C)cc2C(=O)N2CCNC(=O)C2(C)C)cc1-c1ccc(N2CCOCC2)nc1	< 100 nM
CCc1ccc(-c2cc(NC(=O)Nc3cn(C4(C)CCCC4)nc3C(=O)N3CCNC(=O)C3(C)C)ccc2C)cn1	< 100 nM
Cc1ccc(NC(=O)Nc2sc(C(C)(C)C)cc2C(=O)N2CCNC(=O)C2(C)C)cc1-c1ccc(N2CCN(C)CC2)nc1	< 100 nM
COc1ccc(-c2cc(NC(=O)Nc3cc(C(C)(C)C)sc3C(=O)N3CCN(CCO)C(=O)C3(C)C)ccc2C)cn1	< 100 nM
COc1ccc(-c2ccc(C)c(NC(=O)Nc3sc(C(C)(C)C)cc3C(=O)N3CCNC(=O)C3(C)C)c2)cn1	< 100 nM
Cc1ccc(-c2cc(NC(=O)Nc3sc(C(C)(C)C)cc3C(=O)N3CCN(C)C(=O)C3(C)C)ccc2C)cn1	< 100 nM
CCOc1ccc(-c2cc(NC(=O)Nc3cn(C(C)(C)C)nc3C(=O)N3CCN(C)C(=O)C3(C)C)ccc2C)cn1	< 100 nM
CC(C)(C)c1cc(C(=O)N2CCNC(=O)C2(C)C)c(NC(=O)Nc2cccc(-c3cnco3)c2)s1	< 100 nM
Cc1ccc(NC(=O)Nc2sc(C(C)(C)C)cc2C(=O)N2CCNC(=O)C2(C)C)cc1-c1ccc(C(=O)N(C)C)nc1	< 100 nM
COCCNC(=O)c1ccc(-c2cc(NC(=O)Nc3sc(C(C)(C)C)cc3C(=O)N3CCN(C)C(=O)C3(C)C)ccc2C)cn1	< 100 nM
COC(=O)CN1CCN(C(=O)c2cc(C(C)(C)C)sc2NC(=O)Nc2ccc(C)c(-c3ccncc3)c2)C(C)(C)C1=O	< 100 nM
Cc1ccc(NC(=O)Nc2cn(C(C)(C)C)nc2C(=O)N2CCN(C)C(=O)C2(C)C)cc1-c1ccc(CN2CCOCC2)nc1	< 100 nM
Cc1ccc(NC(=O)Nc2cc(C(C)(C)C)sc2C(=O)N2CCNC(=O)C2(C)C)cc1-c1ccc(N2CCOCC2)cn1	< 100 nM
COc1ccc(-c2cc(NC(=O)Nc3sc(C(C)(C)C)cc3C(=O)N3CCN(C)C(=O)C3(C)C)c(F)cc2C)cn1	< 100 nM
Cc1ccc(NC(=O)Nc2sc(C(C)(C)C)cc2C(=O)N2CCN(C)C(=O)C2(C)C)cc1-c1cnc(NCC(O)CO)nc1 (stereo not drawn)	< 100 nM
Cc1ccc(NC(=O)Nc2cc(C(C)(C)C)sc2C(=O)N2CCN(C)C(=O)C2)cc1-c1ccc(CN2CCOCC2)nc1	< 100 nM
CCc1ccc(-c2cc(NC(=O)Nc3sc(C(C)(C)C)cc3C(=O)N3CCN(C)C(=O)C3(C)C)cc(F)c2C)cn1	< 100 nM
COc1ccc(-c2cc(C)cc(NC(=O)Nc3sc(C(C)(C)C)cc3C(=O)N3CCNC(=O)C3(C)C)c2)cn1	< 100 nM

Structure (SMILES)	IC50
Cc1ccc(NC(=O)Nc2sc(C(C)(C)C)cc2C(=O)N2CCNC(=O)C2(C)C)cc1-c1ccc(NCC(O)CO)nc1 (stereo not drawn)	< 100 nM
Cc1ccc(NC(=O)Nc2sc(C(C)(C)C)cc2C(=O)N2CCN(C)C(=O)C2(C)C)cc1-c1ccc(C(C)N2CCOCC2)nc1 (stereo not drawn)	< 100 nM
COc1ccc(-c2cc(NC(=O)Nc3sc(C(C)(C)C)cc3C(=O)N3CCC(=O)N(C)CC3)ccc2C)cn1	< 100 nM
Cc1ccc(NC(=O)Nc2sc(C(C)(C)C)cc2C(=O)N2CCN(C)C(=O)C2(C)C)cc1-c1ccc(N2CCOCC2)nc1	< 100 nM
Cc1ccc(NC(=O)Nc2sc(C(C)(C)C)cc2C(=O)N2CCNC(=O)C2(C)C)cc1-c1ccc(F)nc1	< 100 nM
Cc1ccc(NC(=O)Nc2sc(C(C)(C)C)nc2C(=O)N2CCN(C)C(=O)C2(C)C)cc1-c1ccc(CN2CCOCC2)nc1	< 100 nM
Cc1c(NC(=O)Nc2sc(C(C)(C)C)cc2C(=O)N2CCNC(=O)C2(C)C)cccc1-c1ccc(N2CCOCC2)nc1	< 100 nM
Cc1ccc(NC(=O)Nc2sc(C(C)(C)C)cc2C(=O)N2CCNC(=O)C2(C)C)cc1-c1ccc(OC2CCOCC2)nc1	< 100 nM
CCc1ccc(-c2cc(NC(=O)Nc3sc(C(C)(C)C)cc3C(=O)N3CCN(C)C(=O)C3(C)C)ccc2C)nc1	< 100 nM
Cc1ccc(NC(=O)Nc2sc(C(C)(C)C)cc2C(=O)N2CCNC(=O)C2(C)C)cc1-c1ccccn1	< 100 nM
COc1ccc(-c2cc(NC(=O)Nc3cc(C(C)(C)C)sc3C(=O)N3CCNC(=O)C3(C)C)ccc2C)cn1	< 100 nM
Cc1ccc(NC(=O)Nc2sc(C(C)(C)C)cc2C(=O)N2CCNC(=O)CC2)cc1-c1cnc(N2CCOCC2)nc1	< 100 nM
CCc1ccc(-c2cc(NC(=O)Nc3sc(C(C)(C)C)cc3C(=O)N3CCN(CCN(C)C)C(=O)C3(C)C)ccc2C)cn1	100 to 1000 nM
Cc1ccc(NC(=O)Nc2sc(C(C)(C)C)cc2C(=O)N2CCN(C)C(=O)C2(C)C)cc1-c1ccc(-n2ccnc2)nc1	< 100 nM
Cc1ccc(NC(=O)Nc2sc(C(C)(C)C)cc2C(=O)N2CCNC(=O)CC2)cc1-c1cccnc1	< 100 nM
Cc1ncc(NC(=O)Nc2sc(C(C)(C)C)cc2C(=O)N2CCN(C)C(=O)C2(C)C)cc1C#CC1CC1	< 100 nM
Cc1ccc(NC(=O)Nc2sc(C(C)(C)C)cc2C(=O)N2CCN(C)C(=O)C2(C)C)cc1-c1ccc(OC(C)C)nc1	< 100 nM
Cc1ccc(NC(=O)Nc2sc(C(C)(C)C)cc2C(=O)N2CCNC(=O)C2(C)C)cc1-c1ccc(OCCCc2ccccn2)nc1	< 100 nM
CCNC(=O)c1ccc(-c2cc(NC(=O)Nc3sc(C(C)(C)C)cc3C(=O)N3CCNC(=O)C3(C)C)ccc2C)cn1	< 100 nM
